Results taken from the NIST ThermoML archive (doi:10.1021/je300377a).
± gives the expanded uncertainty stated by the source.

Experiment: molar heat capacity at constant pressure
Conditions: 101.33 kPa, Liquid

CCCCCCCC[N+]1(CC)CCCCC1.O=S(=O)([N-]S(=O)(=O)C(F)(F)F)C(F)(F)F
molar heat capacity at constant pressure (265.01 K): 703.63 ± 340 J/K/mol | molar heat capacity at constant pressure (275 K): 719.33 ± 350 J/K/mol | molar heat capacity at constant pressure (285.01 K): 730.47 ± 350 J/K/mol | molar heat capacity at constant pressure (295.01 K): 743.64 ± 360 J/K/mol | molar heat capacity at constant pressure (305.01 K): 763.4 ± 370 J/K/mol | molar heat capacity at constant pressure (315.01 K): 782.14 ± 380 J/K/mol | molar heat capacity at constant pressure (325.01 K): 799.37 ± 380 J/K/mol | molar heat capacity at constant pressure (335.02 K): 814.56 ± 390 J/K/mol | molar heat capacity at constant pressure (345.02 K): 829.25 ± 400 J/K/mol | molar heat capacity at constant pressure (355.01 K): 844.96 ± 410 J/K/mol | molar heat capacity at constant pressure (365 K): 868.26 ± 420 J/K/mol | molar heat capacity at constant pressure (375.01 K): 882.44 ± 420 J/K/mol | molar heat capacity at constant pressure (385.02 K): 903.72 ± 430 J/K/mol

CCCCCCCCn1cc[n+](C)c1.O=S(=O)([N-]S(=O)(=O)C(F)(F)F)C(F)(F)F
molar heat capacity at constant pressure (265.02 K): 621.44 ± 300 J/K/mol | molar heat capacity at constant pressure (275 K): 628.1 ± 300 J/K/mol | molar heat capacity at constant pressure (285.01 K): 636.18 ± 310 J/K/mol | molar heat capacity at constant pressure (295.01 K): 643.79 ± 310 J/K/mol | molar heat capacity at constant pressure (305.02 K): 651.87 ± 310 J/K/mol | molar heat capacity at constant pressure (315.02 K): 660.43 ± 320 J/K/mol | molar heat capacity at constant pressure (325.02 K): 668.51 ± 320 J/K/mol | molar heat capacity at constant pressure (335.02 K): 675.65 ± 320 J/K/mol | molar heat capacity at constant pressure (345.02 K): 684.21 ± 330 J/K/mol | molar heat capacity at constant pressure (355.02 K): 694.67 ± 330 J/K/mol | molar heat capacity at constant pressure (360 K): 706.08 ± 340 J/K/mol | molar heat capacity at constant pressure (375.01 K): 720.34 ± 350 J/K/mol | molar heat capacity at constant pressure (385.03 K): 737.93 ± 350 J/K/mol

CCCCCCCC[N+]1(C)CCCC1.O=S(=O)([N-]S(=O)(=O)C(F)(F)F)C(F)(F)F
molar heat capacity at constant pressure (265.06 K): 605.8 ± 290 J/K/mol | molar heat capacity at constant pressure (275.13 K): 616.33 ± 300 J/K/mol | molar heat capacity at constant pressure (285.07 K): 626.86 ± 300 J/K/mol | molar heat capacity at constant pressure (295.04 K): 636.43 ± 310 J/K/mol | molar heat capacity at constant pressure (305.04 K): 647.91 ± 310 J/K/mol | molar heat capacity at constant pressure (315.07 K): 658.44 ± 320 J/K/mol | molar heat capacity at constant pressure (325.14 K): 668.97 ± 320 J/K/mol | molar heat capacity at constant pressure (335.04 K): 679.49 ± 330 J/K/mol | molar heat capacity at constant pressure (345.11 K): 690.02 ± 330 J/K/mol | molar heat capacity at constant pressure (355.01 K): 700.55 ± 340 J/K/mol | molar heat capacity at constant pressure (365.05 K): 711.08 ± 340 J/K/mol | molar heat capacity at constant pressure (375.01 K): 721.6 ± 350 J/K/mol | molar heat capacity at constant pressure (385.14 K): 732.13 ± 350 J/K/mol

CCCC[N+]1(C)CCCC1.O=S(=O)([N-]S(=O)(=O)C(F)(F)F)C(F)(F)F
molar heat capacity at constant pressure (265.04 K): 472.25 ± 230 J/K/mol | molar heat capacity at constant pressure (275.12 K): 484.93 ± 230 J/K/mol | molar heat capacity at constant pressure (285.06 K): 492.11 ± 240 J/K/mol | molar heat capacity at constant pressure (295.03 K): 498.44 ± 240 J/K/mol | molar heat capacity at constant pressure (305.03 K): 507.31 ± 240 J/K/mol | molar heat capacity at constant pressure (315.07 K): 515.76 ± 250 J/K/mol | molar heat capacity at constant pressure (325.13 K): 524.63 ± 250 J/K/mol | molar heat capacity at constant pressure (335.04 K): 531.39 ± 260 J/K/mol | molar heat capacity at constant pressure (345.11 K): 539.84 ± 260 J/K/mol | molar heat capacity at constant pressure (355 K): 547.87 ± 260 J/K/mol | molar heat capacity at constant pressure (365.05 K): 554.62 ± 270 J/K/mol | molar heat capacity at constant pressure (375.09 K): 563.07 ± 270 J/K/mol | molar heat capacity at constant pressure (385.14 K): 576.17 ± 280 J/K/mol

CCCCCCCC[n+]1ccccc1.O=S(=O)([N-]S(=O)(=O)C(F)(F)F)C(F)(F)F [1-octylpyridinium bis((trifluoromethyl)sulfonyl)amide]
molar heat capacity at constant pressure (265.04 K): 582.55 ± 280 J/K/mol | molar heat capacity at constant pressure (275.12 K): 597.2 ± 290 J/K/mol | molar heat capacity at constant pressure (285.05 K): 609.01 ± 290 J/K/mol | molar heat capacity at constant pressure (295.03 K): 620.82 ± 300 J/K/mol | molar heat capacity at constant pressure (305.03 K): 636.89 ± 310 J/K/mol | molar heat capacity at constant pressure (315.07 K): 652.95 ± 310 J/K/mol | molar heat capacity at constant pressure (325.13 K): 669.02 ± 320 J/K/mol | molar heat capacity at constant pressure (335.03 K): 681.77 ± 330 J/K/mol | molar heat capacity at constant pressure (345.1 K): 694.53 ± 330 J/K/mol | molar heat capacity at constant pressure (355 K): 707.76 ± 340 J/K/mol | molar heat capacity at constant pressure (365.05 K): 721.93 ± 350 J/K/mol | molar heat capacity at constant pressure (375.09 K): 738.47 ± 350 J/K/mol | molar heat capacity at constant pressure (385.13 K): 755.95 ± 360 J/K/mol
